Results as given in US4201769A, “Antibiotic substances No. 17927A1 and No. 17927A2 and process for producing the same” (Sankyo Company Limited, priority 1977, dated 1980).
Where two headings read alike, the source gives them in different places. Each block holds one compound with its values, some of them ahead of it.

Tests used:
Type in all cases: cell-based
Escherichia coli 640 = assay: Synergistic action with Ampicillin (MIC)
Procedure: (§1) (13) Synergistic action: Synergistic action of the substance No. 17927A2 having 0.23 μg/ml of I50 (50% Inhibitory concentration) against β-lactamase produced from Proteus morganii with Cephaloridine or Ampicillin are summarized in Tables 6 and 7.

Escherichia coli 718 = assay: Synergistic action with Ampicillin (MIC)
Procedure: as §1

Proteus rettgeri 1603 = assay: Synergistic action with Ampicillin or Cephaloridine (MIC)
Procedure: as §1
(§2) (13) Synergistic action: Synergistic action of the substance No. 17927A1 having 0.27 μg/ml of I50 (50% Inhibitory concentration) against β-lactamase produced from Proteus morganii with Cephaloridine are summarized in Table 10.

[1] = tested on: Klebsiella pneumoniae 847; assay: Synergistic action with Cephaloridine (MIC)
Procedure: as §1, §2

Proteus inconstans 1708 = assay: Synergistic action with Cephaloridine (MIC)
Procedure: as §1, §2

Escherichia coli 609 = assay: Synergistic action with Cephaloridine (MIC)
Procedure: as §2

Proteus mirabilis 1332 = assay: Synergistic action with Cephaloridine (MIC)
Procedure: as §2

Proteus morganii 1510 = assay: Synergistic action with Cephaloridine (MIC)
Procedure: as §2

[2] = No. 17927A2 coexisted 0.1 μg/ml
[3] = No. 17927A1 coexisted 0.1 μg/ml
[4] = No. 17927A1 coexisted 0.4 μg/ml

- MIC (Escherichia coli 640; Escherichia coli, 640, read-out: MIC, Ampicillin alone): 25 mg/L
- MIC, Ampicillin with No. 17927A2 coexisted (Escherichia coli 640; [2]): 1.56 mg/L
- MIC (Escherichia coli 718; Escherichia coli, 718, read-out: MIC, Ampicillin alone): 800 mg/L
- MIC, Ampicillin with No. 17927A2 coexisted (Escherichia coli 718; [2]): 25 mg/L
- MIC, Ampicillin with No. 17927A2 coexisted (Proteus rettgeri 1603; [2]): 50 mg/L
- MIC (Proteus rettgeri 1603; Providencia rettgeri, 1603, read-out: MIC, Ampicillin alone): 100 mg/L
SMILES: CC1(C)S[C@@H]2[C@H](NC(=O)[C@H](N)c3ccccc3)C(=O)N2[C@H]1C(=O)O [Ampicillin]

SMILES: O=C(Cc1cccs1)N[C@@H]1C(=O)N2C(C(=O)[O-])=C(C[n+]3ccccc3)CS[C@H]12 [Cephaloridine]
- MIC ([1]; Klebsiella pneumoniae, 847, read-out: MIC, Cephaloridine alone): 100 mg/L
- MIC, Cephaloridine with No. 17927A1 coexisted [1, 3]: 12.5 mg/L
- MIC, Cephaloridine with No. 17927A1 coexisted [1, 4]: 12.5 mg/L
- MIC, Cephaloridine with No. 17927A2 coexisted [1, 2]: 12.5 mg/L
- MIC, Cephaloridine with No. 17927A1 coexisted (Proteus inconstans 1708; [3]): 6.25 mg/L
- MIC, Cephaloridine with No. 17927A1 coexisted (Proteus inconstans 1708; [4]): 3.13 mg/L
- MIC, Cephaloridine with No. 17927A2 coexisted (Proteus inconstans 1708; [2]): 12.5 mg/L
- MIC (Proteus inconstans 1708; Providencia alcalifaciens, 1708, read-out: MIC, Cephaloridine alone): 1600 mg/L
- MIC, Cephaloridine with No. 17927A1 coexisted (Proteus rettgeri 1603; [3]): 50 mg/L
- MIC, Cephaloridine with No. 17927A1 coexisted (Proteus rettgeri 1603; [4]): 25 mg/L
- MIC (Proteus rettgeri 1603; Providencia rettgeri, 1603, read-out: MIC, Cephaloridine alone): 1600 mg/L
- MIC (Escherichia coli 609; Escherichia coli, 609, read-out: MIC, Cephaloridine alone): 100 mg/L
- MIC, Cephaloridine with No. 17927A1 coexisted (Escherichia coli 609; [3]): 100 mg/L
- MIC, Cephaloridine with No. 17927A1 coexisted (Escherichia coli 609; [4]): 50 mg/L
- MIC, Cephaloridine with No. 17927A1 coexisted (Proteus mirabilis 1332; [3]): 50 mg/L
- MIC, Cephaloridine with No. 17927A1 coexisted (Proteus mirabilis 1332; [4]): 50 mg/L
- MIC (Proteus mirabilis 1332; Proteus mirabilis, 1332, read-out: MIC, Cephaloridine alone): 100 mg/L
- MIC (Proteus morganii 1510; Morganella morganii, 1510, read-out: MIC, Cephaloridine alone): 1600 mg/L
- MIC, Cephaloridine with No. 17927A1 coexisted (Proteus morganii 1510; [3]): 50 mg/L
- MIC, Cephaloridine with No. 17927A1 coexisted (Proteus morganii 1510; [4]): 50 mg/L
